Our source for the inhibition, IC50 and Kb values is US12187738B2, “Imidazolo derivatives, compositions and methods as orexin antagonists” (HAGER BIOSCIENCES, LLC, priority 2019, dated 2025).

The target of one assay is T1, human orexin-1 receptor (Homo sapiens, UniProt O43613).
T1 construct: expressed in transfected cells; host or cells: CHO cells (G418 selection)
T1 sequence (O43613 1-425): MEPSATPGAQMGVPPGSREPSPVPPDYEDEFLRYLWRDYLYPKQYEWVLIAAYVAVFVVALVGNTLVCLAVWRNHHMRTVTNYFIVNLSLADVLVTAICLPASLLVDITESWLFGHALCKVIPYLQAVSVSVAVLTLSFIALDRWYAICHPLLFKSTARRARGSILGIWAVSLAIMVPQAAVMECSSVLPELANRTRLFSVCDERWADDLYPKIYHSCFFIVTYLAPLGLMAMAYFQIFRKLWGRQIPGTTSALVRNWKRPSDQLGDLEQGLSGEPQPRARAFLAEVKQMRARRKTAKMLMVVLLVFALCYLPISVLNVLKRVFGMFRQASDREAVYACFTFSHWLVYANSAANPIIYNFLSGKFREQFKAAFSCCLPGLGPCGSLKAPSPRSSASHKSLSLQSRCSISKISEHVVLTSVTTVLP
As to the kind of experiment: Intracellular calcium measurement (FLIPR), orexin-1 receptor antagonism. In kind it is cell-based. The note with it: CHO cells expressing human orexin-1 receptor, 3 nM orexin-A agonist; for inhibition at 1 µM: 1 uM compound, read-out: % Inhibition of OX1R @ 1 uM compound; for IC50: read-out: IC50 OX1R; for Kb: read-out: Kb OX1R. The procedure: (§1) Antagonistic activities on both orexin receptors have been measured for each example compound using the following procedure:
(§2) In Vitro Assay: Intracellular Calcium Measurements:
(§3) Chinese hamster ovary (CHO) cells expressing the human orexin-1 receptor and the human orexin-2 receptor, respectively, are grown in culture medium (Ham F-12 with L-Glutamine) containing 300 μg/mL G418, 100 U/mL penicillin, 100 μg/mL streptomycin and 10% heat inactivated fetal calf serum (FCS). The cells are seeded at 20′000 cells/well into 384-well black clear bottom sterile plates (Greiner). The seeded plates are incubated overnight at 37° C. in 5% CO2. Human orexin-A as an agonist is prepared as 1 mM stock solution in MeOH:water (1:1), diluted in HBSS containing 0.1% bovine serum albumin (BSA), NaHCO 3: 0.375 g/L and 20 mM HEPES for use in the assay at a final concentration of 3 nM.
(§4) Antagonists are prepared as 10 mM stock solution in DMSO, then diluted in 384-well plates using DMSO followed by a transfer of the dilutions into in HBSS containing 0.1% bovine serum albumin (BSA), NaHCO 3: 0.375 g/L and 20 mM HEPES. On the day of the assay, 50 μL of staining buffer (HBSS containing 1% FCS, 20 mM HEPES, NaHCO 3: 0.375 g/L, 5 mM probenecid (Sigma) and 3 μM of the fluorescent calcium indicator fluo-4 AM (1 mM stock solution in DMSO, containing 10% pluronic) is added to each well. The 384-well cell-plates are incubated for 50 min at 37° C. in 5% CO2 followed by equilibration at RT for 30 min before measurement.
(§5) Within the Fluorescent Imaging Plate Reader (FLIPR Tetra, Molecular Devices), antagonists are added to the plate in a volume of 10 μL/well, incubated for 120 min and finally 10 μL/well of agonist is added. Fluorescence is measured for each well at 1 second intervals, and the height of each fluorescence peak is compared to the height of the fluorescence peak induced by 3 nM orexin-A with vehicle in place of antagonist. The IC50 value (the concentration of compound needed to inhibit 50% of the agonistic response) is determined and may be normalized using the obtained IC50 value of an on-plate reference compound. Optimized conditions were achieved by adjustment of pipetting speed and cell splitting regime. The calculated IC50 values may fluctuate depending on the daily cellular assay performance. Fluctuations of this kind are known to those skilled in the art. In the case where IC50 values have been determined several times for the same compound, the geometric mean has been given.
For orientation: A change in cytosolic calcium serves as a functional read-out for many receptors and channels.

The target of the next assay is T2, human orexin-2 receptor (Homo sapiens, UniProt O43614).
T2 construct: expressed in transfected cells; host or cells: CHO cells (G418 selection)
T2 sequence (O43614 1-444): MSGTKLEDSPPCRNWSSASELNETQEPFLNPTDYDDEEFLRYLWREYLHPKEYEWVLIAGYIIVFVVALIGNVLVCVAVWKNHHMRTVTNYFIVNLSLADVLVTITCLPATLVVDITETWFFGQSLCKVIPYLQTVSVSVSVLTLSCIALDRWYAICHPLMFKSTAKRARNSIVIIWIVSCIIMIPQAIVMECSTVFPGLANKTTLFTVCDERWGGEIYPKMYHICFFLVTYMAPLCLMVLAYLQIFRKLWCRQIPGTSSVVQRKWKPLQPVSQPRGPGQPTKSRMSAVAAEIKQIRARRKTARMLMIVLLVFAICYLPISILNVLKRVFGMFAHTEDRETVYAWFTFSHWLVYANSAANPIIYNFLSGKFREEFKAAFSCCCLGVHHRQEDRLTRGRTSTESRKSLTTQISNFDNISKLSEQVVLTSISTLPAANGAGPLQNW
Put plainly: Intracellular calcium measurement (FLIPR), orexin-2 receptor antagonism. In kind it is cell-based. As to conditions: CHO cells expressing human orexin-2 receptor, 3 nM orexin-A agonist; for inhibition at 1 µM: 1 uM compound, read-out: % Inhibition of OX2R @ 1 uM compound. The procedure:
as §1, §2, §3, §4, §5

In general, inhibition refers to the drop in the measured response relative to a control, in per cent. As a reminder, the IC50 is the concentration at which inhibition is half-maximal. In general, Kb refers to the affinity of an antagonist, worked out from how it opposes an agonist. On to `O=C(c1c(-c2ccc(F)cc2)nc2scnn12)N1CCC[C@H]1Cn1ccc(-c2ccccc2)n1` [Example 16], for which, at human orexin-1 receptor, the inhibition at 1 µM amounted to 90.3%, the half-inhibitory concentration (IC50) was 7 nM and the Kb stood at 1.5 nM. Moreover, the inhibition at 1 µM at human orexin-2 receptor was determined as 34.4%.
For `CCc1cnc(NC[C@@H]2CCCN2C(=O)c2c(-c3ccccc3)nc3sccn23)nc1` [Example 6], the inhibition at 1 µM is -5.39% at human orexin-1 receptor and 16.2% on human orexin-2 receptor.
With `Cc1nn2c(C(=O)N3CCC[C@@H](C)[C@H]3CNc3ccc(C(F)(F)F)cn3)c(-c3ccc(F)cc3)nc2s1` [Example 12], on human orexin-1 receptor, the inhibition at 1 µM was 79.8%, the IC50 worked out at 13 nM and the antagonist equilibrium constant (Kb) worked out at 3 nM. Besides, the inhibition at 1 µM at human orexin-2 receptor was 11.8%.
As for `CCc1cnc(NC[C@@H]2CCCN2C(=O)c2c(-c3ccccc3F)nc3sccn23)nc1` [Example 15], the inhibition at 1 µM came to 25.1% on human orexin-1 receptor and 15.2% on human orexin-2 receptor.
For `O=C(c1c(-c2ccccc2)nc2occn12)N1CCC[C@H]1Cn1ccc(-c2ccccc2)n1` [Example 1], the inhibition at 1 µM on human orexin-1 receptor was found to be 70.4%; on human orexin-2 receptor, 26.6%.
The like results for `O=C(c1c(-c2ccccc2F)nc2sccn12)N1CCC[C@H]1CNc1ccc(C(F)(F)F)cn1` [Example 13] were, in that order, 62.8% and 29%.
The like results for `CCc1cnc(NC[C@@H]2CCCN2C(=O)c2c(-c3ccccc3)nc3occn23)nc1` [Example 5] were, in that order, 0.5% and 3.3%.
On the same counts, the results for `O=C(c1c(-c2ccccc2)nc2sccn12)N1CCC[C@H]1Cn1ccc(-c2ccccc2)n1` [Example 2] are 83% and 39.9%.
For `O=C(c1c(-c2ccccc2)nc2sccn12)N1CCC[C@H]1CNc1ccc(C(F)(F)F)cn1` [Example 4], the inhibition at 1 µM on human orexin-1 receptor amounted to 61.1%; on human orexin-2 receptor, 25.4%.
`CCc1cnc(NC[C@@H]2[C@H](C)CCCN2C(=O)c2c(-c3ccccc3)nc3sccn23)nc1` [Example 10]: on human orexin-1 receptor, the inhibition at 1 µM turned out to be 63.5%, the IC50 is 270 nM and the Kb was 57 nM. For the same compound, the inhibition at 1 µM on human orexin-2 receptor was determined as 9.37%.
The like results for `C[C@@H]1CCCN(C(=O)c2c(-c3ccccc3)nc3sccn23)[C@@H]1CNc1ccc(C(F)(F)F)cn1` [Example 9] were, in that order, 81.4%, 18 nM, 4 nM and 10.7%.
With `O=C(c1c(-c2ccccc2F)nc2sccn12)N1CCC[C@H]1Cn1ccc(-c2ccccc2)n1` [Example 14], the inhibition at 1 µM worked out at 87.4% on human orexin-1 receptor and 57% at human orexin-2 receptor. The IC50 on human orexin-1 receptor worked out at 12 nM; at human orexin-2 receptor (read-out: IC50 OX2R), 1750 nM. In addition, the Kb at human orexin-1 receptor came to 3 nM; at human orexin-2 receptor (read-out: Kb OX2R), 241 nM.
In the case of `C[C@@H]1CCCN(C(=O)c2c(-c3ccccc3)nc3occn23)[C@@H]1CNc1ccc(C(F)(F)F)cn1` [Example 8], at human orexin-1 receptor, the inhibition at 1 µM was 81.6%, the IC50 is 11 nM and the Kb came to 2 nM. At human orexin-2 receptor, the inhibition at 1 µM is 1.8%.
Take `O=C(c1c(-c2ccccc2)nc2occn12)N1CCC[C@H]1COc1ccc(C(F)(F)F)cn1` [Example 18]: the inhibition at 1 µM at human orexin-1 receptor came out at 37.1%; on human orexin-2 receptor, 14.9%.
On the same counts, the results for `O=C(c1c(-c2ccccc2)nc2occn12)N1CCC[C@H]1CNc1ccc(C(F)(F)F)cn1` [Example 3] are 45.8% and 14.4%.
The like results for `CCc1cnc(OC[C@@H]2CCCN2C(=O)c2c(-c3ccccc3)nc3occn23)nc1` [Example 17] were, in that order, 4.5% and 8.06%.
On the same counts, the results for `CCc1cnc(NC[C@@H]2[C@H](C)CCCN2C(=O)c2c(-c3ccccc3)nc3occn23)nc1` [Example 7] are 48.1% and 6.75%.
Regarding `CCc1cnc(NC[C@@H]2CCCN2C(=O)c2c(-c3ccc(F)cc3)nc3sc(C)nn23)nc1` [Example 11], the values for the inhibition at 1 µM at human orexin-1 receptor and at human orexin-2 receptor were 16.1% and 12%, respectively.
